# “Also recorded” adds a separate entry of the source.
# Columns and labels:
# Format in all cases: cell-based
# [1] = tested on: RS4; 11 cells; assay: Cell growth inhibition by WST assay with Cpd. C co-treatment (CRBN competition); parameters: LogIC50: unit not given here; details: for HillSlope / IC50 / LogIC50: 4 days; for shift of the dose response curves: co-treatment of Cpd. C (10, 20, or 30 μM)
# Protocol: RS4; 11 cells were pre-incubated with different concentrations of Cpd. C to compete for the binding of phthalimide to CRBN, or DMSO, for 2 hours before adding Cpd. A, Cpd. No. 14, Cpd. No. 15, and Cpd. No. 22. The cells were then co-treated with 10, 20, or 30 μM Cpd. C and increasing concentrations of Cpd. A, Cpd. No. 14, Cpd. No. 15, and Cpd. No. 22 for 4 days, with a starting cell concentration of ˜15,000/well. Cell growth inhibition was determined by the WST assay. […] No. 14, Cpd. No. 15, and Cpd. No. 22 with co-treatment of Cpd. C. The structure of Cpd.
# [2] = tested on: RS4; 11 cell line; assay: CellTiter-Glo Luminescent Cell Viability Assay, cell growth inhibition; details: Homo sapiens, 96 h, 4 days
# In short: (§1)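 Cells plated at 2,000/well with serially diluted compounds, incubated 4 days at 37° C, 5% CO2. Viability read by CellTiter-Glo luminescence after 10-20 min at room temperature; IC50 from dose-response fit.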
# [3] = tested on: MV4-11 cell line; assay: as above; details: Homo sapiens, 96 h, 4 days
# In short: as §1
# [4] = tested on: RS4; 11 cells with stable shRNA knockdown of p53; assay: Cell growth inhibition by WST assay, p53 knockdown cells; parameters: LogIC50: unit not given here; details: RS4;11 sh p53, 4 days; for IC50: Homo sapiens, 96 h
# Protocol: (§2) RS4; 11 cells with stable shRNA knockdown of p53 or those transfected shRNA control vector were treated with Cpd. A, Cpd. B, Cpd. No. 14, Cpd. No. 21, Cpd. No. 15, and Cpd. No. 22 for 4 days, with a cell concentration of ˜15,000/well. Cell growth inhibition was determined by WST assay. See Table 7 (p53) and Table 8 (control). Significant increases in IC50 of the Compounds of the Disclosure in the p53 knockdown RS4; 11 cells were observed compared with that in the sh control cells. […] The p53 knockdown efficiency was determined by western blot for p53 protein levels with or without treatment of Cpd. A (1 μM) for 2 hours.
# [5] = tested on: p53 target genes: p21, PUMA and BAX; assay: Activation of p53 downstream target genes, quantitative real-time PCR; details: RS4, 11 cells; for activation of p53 downstream target genes (mRNA levels of p21, PUMA, BAX): 3, 6, or 12 hours
# Protocol: RS4; 11 cells were treated with Cpd. A (0.3 μM), Cpd. No. 15 (10 nM), and Cpd. No. 22 (10 nM) for 3, 6, or 12 hours, and then harvested and washed. Cellular mRNA samples were extracted from the cells and then subjected to Reverse Transcription and quantitative real-time PCR for the analysis of the mRNA levels of three representative p53 target genes: p21, that induces cell cycle arrest, and PUMA and BAX that leads to apoptosis. […] A, Cpd. No. 15, and Cpd. No. 22.
# [6] = tested on: RS4; 11 cells transfected shRNA control vector; assay: Cell growth inhibition by WST assay, shRNA control cells; parameters: LogIC50: unit not given here; details: RS4;11 sh Control, 4 days; for IC50: Homo sapiens, 96 h
# Protocol: as §2
# [7] = target: T1, MDM2 (Homo sapiens, UniProt Q00987); assay: MDM2 degradation and p53 activation after pre-incubation with Cpd. C, Western blot; parameters: endogenous in cells; host or cells: RS4;11; details: for MDM2 degradation, dependence on cereblon (CRBN): FIG. 7; for MDM2 degradation, competition by Cpd. C / p53 activation, competition by Cpd. C: RS4, 11 cells, pre-incubated with 30 μM Cpd. C for 2 hours
# Protocol: RS4; 11 cells were pre-incubated with 30 μM Cpd. C to compete for the binding of phthalimide to CRBN, or DMSO, for 2 hours before adding Cpd. A, Cpd. No. 14, Cpd. No. 15, and Cpd. No. 22. In the Western blot RS4; 11 cells were then co-treated with the indicated compounds at the indicated concentrations after pre-incubation. […] No. 14, Cpd. No. 15, and Cpd.
# [8] = target: T1, MDM2; assay: MDM2 degradation and p53 activation, western blotting of cell lysates; parameters: endogenous in cells; host or cells: RS4;11; details: RS4
# Protocol: RS4; 11 cells were treated with Cpd. A, Cpd. B, Cpd. No. 15, and Cpd. No. 22 for 2 hours, then harvested and lysed. The cell lysates were subjected to western blotting analysis. […] No. 15 and Cpd. No. 22 as compared to Cpd. A, indicating MDM2 degradation. The structure of Cpd.
# [9] = target: T1, MDM2; assay: as above; parameters: endogenous in cells
# Protocol: MV-4-11 cells were treated with Cpd. A, Cpd. B, Cpd. No. 15, and Cpd. No. 22 for 2 hours, then harvested and lysed. The cell lysates were subjected to western blotting analysis. […] No. 15 and Cpd. No. 22 as compared to Cpd. A, indicating MDM2 degradation.
# [10] = target: T1, MDM2; assay: MDM2 degradation with or without proteasome inhibitor MG-132, western blotting; parameters: endogenous in cells; host or cells: RS4;11; details: FIG. 6
# Protocol: RS4; 11 cells were pre-incubated with the proteasome inhibitor MG-132 (20 μM) or without any pre-incubation for 2 hours. Next, the cells were treated with Cpd. A (0.3 μM), Cpd. No. 14 (0.03 μM), Cpd. No. 15 (0.01 μM), and Cpd. No. 22 (0.01 μM) for 2 hours, then harvested and lysed. The cell lysates were subject to western blotting analysis.
# [11] = Homo sapiens, 96 h, without Cpd. C
# T1 sequence (Q00987 whole entry): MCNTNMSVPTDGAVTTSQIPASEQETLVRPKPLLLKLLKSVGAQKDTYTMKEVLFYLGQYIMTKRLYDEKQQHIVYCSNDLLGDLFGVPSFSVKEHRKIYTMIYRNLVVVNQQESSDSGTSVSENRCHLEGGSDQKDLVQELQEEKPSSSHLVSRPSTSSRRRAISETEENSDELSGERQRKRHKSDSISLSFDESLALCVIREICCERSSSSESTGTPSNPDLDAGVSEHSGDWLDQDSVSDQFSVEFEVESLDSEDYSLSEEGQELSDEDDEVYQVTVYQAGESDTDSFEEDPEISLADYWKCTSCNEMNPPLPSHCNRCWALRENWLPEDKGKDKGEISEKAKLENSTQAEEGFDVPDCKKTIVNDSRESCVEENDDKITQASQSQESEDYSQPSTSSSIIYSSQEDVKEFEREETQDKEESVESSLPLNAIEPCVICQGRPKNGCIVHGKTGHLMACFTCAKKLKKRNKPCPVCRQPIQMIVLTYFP
SMILES,IC50 ([1]; + 10 uM Cpd. C),IC50 ([1]; + 20 uM Cpd. C),IC50 ([1]; + 30 uM Cpd. C),"IC50 [1, 11]",IC50 [2],IC50 [3],IC50 [4],IC50 [6],HillSlope ([1]; + 10 uM Cpd. C),LogIC50 ([1]; + 10 uM Cpd. C),HillSlope ([1]; + 20 uM Cpd. C),LogIC50 ([1]; + 20 uM Cpd. C),HillSlope ([1]; + 30 uM Cpd. C),LogIC50 ([1]; + 30 uM Cpd. C),HillSlope ([1]; without Cpd. C),LogIC50 ([1]; without Cpd. C),HiliSlope [4],LogIC50 [4],HiliSlope [6],LogIC50 [6],other results
"O=C1CCC(N2Cc3c(NCCOCCOCCOCCNC(=O)c4ccc(NC(=O)[C@@H]5NC6(CCCCC6)[C@@]6(C(=O)Nc7cc(Cl)ccc76)[C@H]5c5cccc(Cl)c5F)cc4)cccc3C2=O)C(=O)N1 (stereo partly drawn) [Cpd. No. 22, (3′R,4'S,5′R)-6″-chloro-4′-(3-chloro-2-fluorophenyl)-N-(4-((2-(2-(2-(2-((2-(2,6-dioxopiperidin-3-yl)-1-oxoisoindolin-4-yl)amino)ethoxy)ethoxy)ethoxy)ethyl)carbamoyl)phenyl)-2″-oxodispiro[cyclohexane-1,2′-pyrrolidine-3′,3″-indoline]-5′-carboxamide]",61.7 nM,89.6 nM,83.2 nM,5.73 nM,4.7 nM,2.7 nM,137 nM,9.45 nM,−1.701,−1.209,−1.530,−1.048,−1.341,−1.080,−1.803,−2.242,−0.8833,−0.8628,−1.567,−2.025,"shift of the dose response curves [1]: Significant rightward shifts; MDM2 degradation, dependence on cereblon (CRBN) [7]: cereblon (CRBN)-dependent; MDM2 degradation, competition by Cpd. C [7]: significantly competed by Cpd. C; p53 activation, competition by Cpd. C [7]: significantly competed by Cpd. C; p53 activation ([8]; 11 cell line): p53 activation; protein level of MDM2 (MDM2 degradation) ([8]; 11 cells, 2 hours, compared to Cpd. A): induce MDM2 degradation; also recorded: significantly decreased; p53 activation ([9]; MV-4-11 cell line): p53 activation; protein level of MDM2 (MDM2 degradation) ([9]; MV-4-11 cells, 2 hours, compared to Cpd. A): induce MDM2 degradation; also recorded: significantly decreased; MDM2 degradation, dependence on proteasome [10]: proteasome-dependent; mRNA levels of p21 ([5]; FIG. 3, 10 nM): activate; mRNA levels of PUMA ([5]; FIG. 4, 10 nM): activate; mRNA levels of BAX ([5]; FIG. 5, 10 nM): activate; activation of p53 downstream target genes (mRNA levels of p21, PUMA, BAX) ([5]; 10 nM): Significant activation"
"O=C1CCC(N2Cc3c(NCCOCCOCCNC(=O)c4ccc(NC(=O)[C@@H]5NC6(CCCCC6)[C@@]6(C(=O)Nc7cc(Cl)ccc76)[C@H]5c5cccc(Cl)c5F)cc4)cccc3C2=O)C(=O)N1 (stereo partly drawn) [Cpd. No. 21, (3′R,4'S,5′R)-6″-chloro-4′-(3-chloro-2-fluorophenyl)-N-(4-((2-(2-(2-((2-(2,6-dioxopiperidin-3-yl)-1-oxoisoindolin-4-yl)amino)ethoxy)ethoxy)ethyl)carbamoyl)phenyl)-2″-oxodispiro[cyclohexane-1,2′-pyrrolidine-3′,3″-indoline]-5′-carboxamide]",–,–,–,–,4.4 nM,2 nM,4160 nM,13.1 nM,–,–,–,–,–,–,–,–,−0.4410,0.6196,−1.448,−1.882,–
"O=C1CCC(N2C(=O)c3cccc(NCCOCCOCCNC(=O)c4ccc(NC(=O)[C@@H]5NC6(CCCCC6)[C@@]6(C(=O)Nc7cc(Cl)ccc76)[C@H]5c5cccc(Cl)c5F)cc4)c3C2=O)C(=O)N1 (stereo partly drawn) [Cpd. No. 14, (3′R,4'S,5′R)-6″-chloro-4′-(3-chloro-2-fluorophenyl)-N-(4-((2-(2-(2-((2-(2,6-dioxopiperidin-3-yl)-1,3-dioxoisoindolin-4-yl)amino)ethoxy)ethoxy)ethyl)carbamoyl)phenyl)-2″-oxodispiro[cyclohexane-1,2′-pyrrolidine-3′,3″-indoline]-5′-carboxamide]",57 nM,81.1 nM,77.4 nM,7.13 nM,8.5 nM,7.6 nM,501 nM,9.67 nM,−1.705,−1.244,−1.667,−1.091,−1.600,−1.111,−1.996,−2.147,−0.4731,−0.3000,−1.475,−2.014,"shift of the dose response curves [1]: Significant rightward shifts; MDM2 degradation, dependence on cereblon (CRBN) [7]: cereblon (CRBN)-dependent; MDM2 degradation, competition by Cpd. C [7]: significantly competed by Cpd. C; p53 activation, competition by Cpd. C [7]: significantly competed by Cpd. C; MDM2 degradation, dependence on proteasome [10]: proteasome-dependent"

# More lines, main results first:
IC50 ([1]; + 10 uM Cpd. C),IC50 ([1]; + 20 uM Cpd. C),IC50 ([1]; + 30 uM Cpd. C),"IC50 [1, 11]",IC50 [2],IC50 [3],IC50 [4],IC50 [6],SMILES,HillSlope ([1]; + 10 uM Cpd. C),LogIC50 ([1]; + 10 uM Cpd. C),HillSlope ([1]; + 20 uM Cpd. C),LogIC50 ([1]; + 20 uM Cpd. C),HillSlope ([1]; + 30 uM Cpd. C),LogIC50 ([1]; + 30 uM Cpd. C),HillSlope ([1]; without Cpd. C),LogIC50 ([1]; without Cpd. C),HiliSlope [4],LogIC50 [4],HiliSlope [6],LogIC50 [6],other results
48.1 nM,39 nM,36.5 nM,93.3 nM,86 nM,100 nM,9830 nM,97.5 nM,"O=C(O)c1ccc(NC(=O)[C@@H]2NC3(CCCCC3)[C@@]3(C(=O)Nc4cc(Cl)ccc43)[C@H]2c2cccc(Cl)c2F)cc1 [Cpd. A, reference compound]",−1.569,−1.317,−1.406,−1.409,−1.411,−1.438,−1.496,−1.030,−0.4240,0.9926,−1.155,−1.011,"activation of p53 downstream target genes (mRNA levels of p21, PUMA, BAX) ([5]; 0.3 μM): Significant activation"
–,–,–,–,–,–,5670 nM,85.3 nM,"COCCONC(=O)c1ccc(NC(=O)[C@@H]2NC3(CCCCC3)[C@@]3(C(=O)Nc4cc(Cl)ccc43)[C@H]2c2cccc(Cl)c2F)cc1 [Cpd. B, reference compound]",–,–,–,–,–,–,–,–,−0.7973,0.7537,−0.9620,−1.069,–

# — patent US12637473B2, “MDM2 protein degraders” (THE REGENTS OF THE UNIVERSITY OF MICHIGAN, priority 2016, dated 2026)
